Test results reported in ChEMBL document CHEMBL1201862, “PubChem BioAssay data set” (2004).
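All cell lines were grown in 96-well plates and treated with compound for 48 hours. GI50 marks 50% less growth.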 The source made the active and inactive calls. No stated cut-off is given here; in the data, active = GI50 up to about 1.1 µM and inactive = higher.

Tests used:
Assay in all cases: NCI anticancer screen, dose series, 48 h
786-0 = system: 786-0
A498 = system: A498
A549 = system: A549
ACHN = system: ACHN
BT-549 = system: BT-549
CAKI-1 = system: CAKI-1
COLO 205 = system: COLO 205
DU-145 = system: DU-145
EKVX = system: EKVX
HCC 2998 = system: HCC 2998
HCT-116 = system: HCT-116
HCT-15 = system: HCT-15
HOP-62 = system: HOP-62
HOP-92 = system: HOP-92
Hs-578T = system: Hs-578T
K562 = system: K562
KM12 = system: KM12
LOX IMVI = system: LOX IMVI
M14 = system: M14
MCF7 = system: MCF7
MDA-MB-231 = system: MDA-MB-231
MDA-MB-435 = system: MDA-MB-435
MDA-N = system: MDA-N
MOLT-4 = system: MOLT-4
Malme-3M = system: Malme-3M
NCI-H226 = system: NCI-H226
NCI-H23 = system: NCI-H23
NCI-H460 = system: NCI-H460
NCI-H522 = system: NCI-H522
NCI/ADR-RES = system: NCI/ADR-RES
OVCAR-3 = system: OVCAR-3
OVCAR-4 = system: OVCAR-4
OVCAR-5 = system: OVCAR-5
OVCAR-8 = system: OVCAR-8
PC-3 = system: PC-3
RPMI-8226 = system: RPMI-8226
RXF 393 = system: RXF 393
SF-268 = system: SF-268
SF-295 = system: SF-295
SF-539 = system: SF-539
SK-MEL-28 = system: SK-MEL-28
SK-MEL-2 = system: SK-MEL-2
SK-MEL-5 = system: SK-MEL-5
SK-OV-3 = system: SK-OV-3
SN12C = system: SN12C
SNB-19 = system: SNB-19
SNB-75 = system: SNB-75
SW-620 = system: SW-620
T47D = system: T47D
TK-10 = system: TK-10
U-251 = system: U-251
UACC-257 = system: UACC-257
UACC-62 = system: UACC-62
UO-31 = system: UO-31
CCRF-CEM = system: CCRF-CEM
HL-60 = system: HL-60
HT-29 = system: HT-29
IGROV-1 = system: IGROV-1

Structure (SMILES): COC(=O)[C@H](Cc1ccccc1)NC(=O)NCCN(CCNC(=O)N[C@@H](Cc1ccccc1)C(=O)OC)C(=O)N[C@@H](Cc1ccccc1)C(=O)OC
- GI50 (786-0): 19.5 µM (inactive)
- GI50 (A498): 32.9 µM (inactive)
- GI50 (A549): 29 µM (inactive)
- GI50 (ACHN): 24.5 µM (inactive)
- GI50 (BT-549): 18.9 µM (inactive)
- GI50 (CAKI-1): > 45.8 µM (inactive)
- GI50 (COLO 205): 21.9 µM (inactive)
- GI50 (DU-145): 21.1 µM (inactive)
- GI50 (EKVX): 30.6 µM (inactive)
- GI50 (HCC 2998): 20.3 µM (inactive)
- GI50 (HCT-116): 20.3 µM (inactive)
- GI50 (HCT-15): > 50.1 µM
- GI50 (HOP-62): 20.7 µM (inactive)
- GI50 (HOP-92): 35.4 µM (inactive)
- GI50 (Hs-578T): 23.8 µM (inactive)
- GI50 (K562): 22.3 µM (inactive)
- GI50 (KM12): 20.9 µM (inactive)
- GI50 (LOX IMVI): 38.4 µM (inactive)
- GI50 (M14): 25.6 µM (inactive)
- GI50 (MCF7): 26 µM (inactive)
- GI50 (MDA-MB-231): 23.7 µM (inactive)
- GI50 (MDA-MB-435): 22.3 µM (inactive)
- GI50 (MDA-N): 18.2 µM (inactive)
- GI50 (MOLT-4): 20.2 µM (inactive)
- GI50 (Malme-3M): 22 µM (inactive)
- GI50 (NCI-H226): 18.2 µM (inactive)
- GI50 (NCI-H23): 18.9 µM (inactive)
- GI50 (NCI-H460): 18.8 µM (inactive)
- GI50 (NCI-H522): 15.7 µM (inactive)
- GI50 (NCI/ADR-RES): > 100 µM (inactive)
- GI50 (OVCAR-3): 19.5 µM (inactive)
- GI50 (OVCAR-4): 15.2 µM (inactive)
- GI50 (OVCAR-5): 20.4 µM (inactive)
- GI50 (OVCAR-8): 18.3 µM (inactive)
- GI50 (PC-3): 22.3 µM (inactive)
- GI50 (RPMI-8226): 25.3 µM (inactive)
- GI50 (RXF 393): 16.9 µM (inactive)
- GI50 (SF-268): 17 µM (inactive)
- GI50 (SF-295): 18.9 µM (inactive)
- GI50 (SF-539): 18.8 µM (inactive)
- GI50 (SK-MEL-28): 19.4 µM (inactive)
- GI50 (SK-MEL-2): 21.8 µM (inactive)
- GI50 (SK-MEL-5): 20.7 µM (inactive)
- GI50 (SK-OV-3): 31.9 µM (inactive)
- GI50 (SN12C): > 10 µM (inactive)
- GI50 (SNB-19): 24.7 µM (inactive)
- GI50 (SNB-75): 20.7 µM (inactive)
- GI50 (SW-620): 22.8 µM (inactive)
- GI50 (T47D): 22.6 µM (inactive)
- GI50 (TK-10): 20.1 µM (inactive)
- GI50 (U-251): 21.8 µM (inactive)
- GI50 (UACC-257): 20.7 µM (inactive)
- GI50 (UACC-62): 25.5 µM (inactive)
- GI50 (UO-31): 24.3 µM (inactive)

Structure (SMILES): COc1ccc(OCC(=N/NC(=O)c2ccncc2)/N=C/c2ccncc2)cc1
- GI50 (786-0): > 100 µM (inactive)
- GI50 (A498): 59.3 µM (inactive)
- GI50 (A549): > 100 µM (inactive)
- GI50 (ACHN): > 100 µM (inactive)
- GI50 (BT-549): > 100 µM (inactive)
- GI50 (CAKI-1): > 100 µM (inactive)
- GI50 (CCRF-CEM): > 100 µM (inactive)
- GI50 (COLO 205): 74 µM (inactive)
- GI50 (DU-145): > 100 µM (inactive)
- GI50 (EKVX): > 100 µM (inactive)
- GI50 (HCC 2998): > 100 µM (inactive)
- GI50 (HCT-116): 83.9 µM (inactive)
- GI50 (HCT-15): 51.5 µM
- GI50 (HL-60): 57.9 µM (inactive)
- GI50 (HOP-62): 71.8 µM (inactive)
- GI50 (HOP-92): 29.2 µM (inactive)
- GI50 (HT-29): 57 µM (inactive)
- GI50 (Hs-578T): > 100 µM (inactive)
- GI50 (IGROV-1): 91.2 µM (inactive)
- GI50 (K562): 57.9 µM (inactive)
- GI50 (KM12): 60 µM (inactive)
- GI50 (LOX IMVI): > 100 µM (inactive)
- GI50 (M14): 82 µM (inactive)
- GI50 (MCF7): 54.6 µM (inactive)
- GI50 (MDA-MB-231): > 100 µM (inactive)
- GI50 (MDA-MB-435): 22.6 µM (inactive)
- GI50 (MDA-N): 17.6 µM (inactive)
- GI50 (MOLT-4): 90.2 µM (inactive)
- GI50 (Malme-3M): > 100 µM (inactive)
- GI50 (NCI-H226): 67.5 µM (inactive)
- GI50 (NCI-H23): > 100 µM (inactive)
- GI50 (NCI-H460): > 100 µM (inactive)
- GI50 (NCI-H522): 32.2 µM (inactive)
- GI50 (NCI/ADR-RES): 77.6 µM (inactive)
- GI50 (OVCAR-3): 48.6 µM (inactive)
- GI50 (OVCAR-4): > 100 µM (inactive)
- GI50 (OVCAR-5): > 100 µM (inactive)
- GI50 (OVCAR-8): > 100 µM (inactive)
- GI50 (PC-3): > 100 µM (inactive)
- GI50 (RPMI-8226): 40.7 µM (inactive)
- GI50 (RXF 393): 36.3 µM (inactive)
- GI50 (SF-268): > 100 µM (inactive)
- GI50 (SF-295): 42.9 µM (inactive)
- GI50 (SF-539): > 100 µM (inactive)
- GI50 (SK-MEL-28): 75.5 µM (inactive)
- GI50 (SK-MEL-2): > 100 µM (inactive)
- GI50 (SK-OV-3): 94.4 µM (inactive)
- GI50 (SN12C): > 100 µM (inactive)
- GI50 (SNB-19): > 100 µM (inactive)
- GI50 (SW-620): 53.5 µM (inactive)
- GI50 (T47D): > 100 µM (inactive)
- GI50 (TK-10): > 100 µM (inactive)
- GI50 (U-251): > 100 µM (inactive)
- GI50 (UACC-257): > 100 µM (inactive)
- GI50 (UACC-62): 53.6 µM (inactive)
